The EC50 is the concentration at which the effect is half-maximal. Read a high EC50 as a less potent agent. As usually defined, the inhibition is the relative decrease from the control value, in per cent.

Type in all cases: cell-based
Test [1] has as its system Wnt activity (Sp5-Luc reporter, SW480 colon carcinoma cells). Description: Wnt activity screening assay, Sp5-Luc reporter gene in SW480 cells. Particulars: Homo sapiens; for EC50: Sp5-Luc reporter, SW480 cells, overnight incubation; for inhibition at 10 µM: SW480, read-out: percent inhibition at 10 μM. Put shortly: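 Read-out is BrightGlo luminescence, normalized to DMSO-treated cells and fitted by four-parameter variable-slope regression for EC50. Reporter cells: SW480 colon carcinoma carrying a stable lentiviral Sp5-Luc construct with eight TCF/LEF sites, seeded 4,000/well in 1% FBS, incubated overnight at 37° C.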
(A reporter such as luciferase makes a cellular process visible.)

Test [2] has as its system SW480 colon cancer cells. Description: Cell viability assay (CellTiter-Blue), SW480 cells, four days. Particulars: Homo sapiens; for EC50: 96 h, SW480 cell viability, four days, CellTiter-Blue; for inhibition at 10 µM: SW480, read-out: percent inhibition at 10 μM. A digest of the protocol: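 Fluorescence from resazurin reduced to resorufin by metabolically active cells was the read-out, taken after ~3 h with CellTiter-Blue.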
(Alamar Blue is a resazurin reagent that responds to reducing activity.)

Test [3] deals with primary human fibroblasts derived from IPF patients (LL29 cells) treated with TGF-β1. Put plainly: Inhibition of the fibrotic process: αSMA staining in TGF-β1 treated LL29 fibroblasts. The settings on record: Fibroblast; for EC50: 96 h, LL29 cells, TGF-β1 20 ng/mL, 4 days, % αSMA positive cells; for inhibition at 10 µM: read-out: percent inhibition at 10 μM. Put shortly: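 Read-out after 4-day incubation: αSMA staining with 1 μM SYTOX green nuclear counterstain (30 min, room temperature). Cells were LL29 primary fibroblasts from IPF patients, in 1% FBS F12, exposed to TGF-β1 with test compound, referenced to TGF-β1/DMSO control wells.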

Test [4] relates to IL-6 (THP-1 human monocyte cell line). Put plainly: IL-6 inhibition in LPS-stimulated THP-1 cells (HTRF). Particulars: for EC50: IL-6 inhibition, LPS-stimulated THP-1 cells, HTRF; for inhibition at 10 µM: THP-1, read-out: percentage in parentheses beside EC50 >10 (IL-6 inhibition). Put shortly:
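After 24 h in 1% FBS medium, cells had compound 2 h before 500 ng/mL LPS, then 22 h more at 37 °C. DMSO-normalized HTRF signal (665/620 nm ratio, anti-IL-6 antibody pair) was fitted with a variable-slope four-parameter model to give EC50.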
Background: TR-FRET usually uses a lanthanide donor and a delayed reading to cut background.

Take `CC(C)(C)C(=O)Nc1cncc(-c2ccc3[nH]nc(-c4cc5c(-c6cccs6)ccnc5[nH]4)c3c2)c1` [Compound 344, N-(5-(3-(4-(Thiophen-2-yl)-1H-pyrrolo[2,3-b]pyridin-2-yl)-1H-indazol-5-yl)pyridin-3-yl)pivalamide]: the EC50 in test [1] was 0.215 µM; in test [2], 0.606 µM; in test [3], more than 10 µM; in test [4], 0.053 µM. Moreover, the inhibition at 10 µM in test [3] turned out to be 0%.

Consider `CN(C)Cc1cncc(-c2ccc3[nH]nc(-c4cc5c(-c6cccs6)ccnc5[nH]4)c3c2)c1` [Compound 349, N,N-Dimethyl-1-(5-(3-(4-(thiophen-2-yl)-1H-pyrrolo[2,3-b]pyridin-2-yl)-1H-indazol-5-yl)pyridin-3-yl)methanamine], for which the EC50 came out at 3.85 µM in test [1], 4.64 µM in test [2], 0.874 µM in test [3] and 0.091 µM in test [4].

For the compound `CC(C)(C)CC(=O)Nc1cncc(-c2ccc3[nH]nc(-c4cc5c(-c6cccs6)ccnc5[nH]4)c3c2)c1` [Compound 352, 3,3-Dimethyl-N-(5-(3-(4-(thiophen-2-yl)-1H-pyrrolo[2,3-b]pyridin-2-yl)-1H-indazol-5-yl)pyridin-3-yl)butanamide], the EC50 in test [1] was 0.432 µM; in test [2] it was 0.872 µM; in test [3] it was 0.355 µM; in test [4] it was 0.073 µM.

For `CCCC(=O)Nc1cncc(-c2ccc3[nH]nc(-c4cc5c(-c6cccs6)ccnc5[nH]4)c3c2)c1` [Compound 353, N-(5-(3-(4-(Thiophen-2-yl)-1H-pyrrolo[2,3-b]pyridin-2-yl)-1H-indazol-5-yl)pyridin-3-yl)butyramide], the half-maximal effective concentration (EC50) was 0.04 µM in test [1], 1.3 µM in test [2], 5.08 µM in test [3] and more than 10 µM in test [4]. For the same compound, the inhibition at 10 µM in test [4] was found to be 37.5%.

`c1ccc(-c2ccc3[nH]nc(-c4cc5c(-c6cccs6)ccnc5[nH]4)c3c2)nc1` [Compound 364, 5-(Pyridin-2-yl)-3-(4-(thiophen-2-yl)-1H-pyrrolo[2,3-b]pyridin-2-yl)-1H-indazole]: the half-maximal effective concentration (EC50) in test [1] amounted to 3.38 µM; in test [2], 1.14 µM; in test [3], 2.2 µM; in test [4], 1.57 µM.

`Fc1ccc(-c2ccnc3[nH]c(-c4n[nH]c5ccc(C6=CCNCC6)cc45)cc23)cc1` [Compound 522, 3-(4-(4-Fluorophenyl)-1H-pyrrolo[2,3-b]pyridin-2-yl)-5-(1,2,3,6-tetrahydropyridin-4-yl)-1H-indazole]: the half-maximal effective concentration (EC50) is 3.25 µM in test [1], more than 10 µM in test [2], 3.86 µM in test [3] and more than 10 µM in test [4]. Moreover, the inhibition at 10 µM in test [2] came out at 19.2%; in test [4], 48.7%.

In the case of `CN(C)CCOc1cncc(-c2ccc3[nH]nc(-c4cc5c(-c6ccc(F)cc6)ccnc5[nH]4)c3c2)c1` [Compound 531, 2-((5-(3-(4-(4-Fluorophenyl)-1H-pyrrolo[2,3-b]pyridin-2-yl)-1H-indazol-5-yl)pyridin-3-yl)oxy)-N,N-dimethylethan-1-amine], the inhibition at 10 µM was 2.3% in test [1], 4.1% in test [2], 15.6% in test [3] and 0% in test [4]. Besides, the half-maximal effective concentration (EC50) in test [1], in test [2], in test [3] and in test [4] was more than 10 µM throughout.

Regarding `c1cc(-c2ccnc3[nH]c(-c4n[nH]c5ccc(-c6cn[nH]c6)cc45)cc23)ccn1` [Compound 571, 5-(1H-Pyrazol-4-yl)-3-(4-(pyridin-4-yl)-1H-pyrrolo[2,3-b]pyridin-2-yl)-1H-indazole], the inhibition at 10 µM was 37% in test [1], 23.8% in test [2], 28.3% in test [3] and 37% in test [4]. The EC50 in test [1], in test [2], in test [3] and in test [4] was more than 10 µM throughout.

Turning to `Cc1ncc(-c2ccc3[nH]nc(-c4cc5c(-c6ccncc6)ccnc5[nH]4)c3c2)n1C` [Compound 573, 5-(1,2-Dimethyl-1H-imidazol-5-yl)-3-(4-(pyridin-4-yl)-1H-pyrrolo[2,3-b]pyridin-2-yl)-1H-indazole], the results for the inhibition at 10 µM in test [1], in test [3] and in test [4] were 8%, 113% and 26.4%, respectively. Moreover, the EC50 in test [1] was more than 10 µM; in test [2], 1.15 µM; in test [3], more than 10 µM; in test [4] it was more than 10 µM.

As for `c1cc(N2CCCCC2)c2cc(-c3n[nH]c4ccc(-c5cn[nH]c5)cc34)[nH]c2n1` [Compound 603, 3-(4-(Piperidin-1-yl)-1H-pyrrolo[2,3-b]pyridin-2-yl)-5-(1H-pyrazol-4-yl)-1H-indazole], the concentration for a half-maximal effect (EC50) in test [1] was 0.181 µM; in test [2], 0.296 µM; in test [3] it was 0.304 µM; in test [4], 0.663 µM.

In the case of `NC1CN(c2cncc(-c3ccc4[nH]nc(-c5cc6c(N7CCCCC7)ccnc6[nH]5)c4c3)n2)C1` [Compound 606, 1-(6-(3-(4-(Piperidin-1-yl)-1H-pyrrolo[2,3-b]pyridin-2-yl)-1H-indazol-5-yl)pyrazin-2-yl)azetidin-3-amine], the inhibition at 10 µM in test [1] was found to be 20.2%; in test [2], 10.2%; in test [4], 39.1%. Besides, the 50% effective concentration (EC50) was more than 10 µM in test [1], more than 10 µM in test [2], 3.62 µM in test [3] and more than 10 µM in test [4].

In the case of `c1cc(N2CCCCC2)c2cc(-c3n[nH]c4ccc(-c5cncc(OC6CCCCC6)c5)cc34)[nH]c2n1` [Compound 607, 5-(5-(Cyclohexyloxy)pyridin-3-yl)-3-(4-(piperidin-1-yl)-1H-pyrrolo[2,3-b]pyridin-2-yl)-1H-indazole], the inhibition at 10 µM in test [1] is 28.4%; in test [4], 20%. The 50% effective concentration (EC50) in test [1] is more than 10 µM; in test [2] it was 8.58 µM; in test [3], 7.1 µM; in test [4] it was more than 10 µM.

With `CN1CCN(c2ccnc3[nH]c(-c4n[nH]c5ccc(-c6cncc(OCc7ccccc7)c6)cc45)cc23)CC1` [Compound 646, 5-(5-(Benzyloxy)pyridin-3-yl)-3-(4-(4-methylpiperazin-1-yl)-1H-pyrrolo[2,3-b]pyridin-2-yl)-1H-indazole], the EC50 in test [1] is 4.88 µM; in test [2], 4.82 µM; in test [3], 0.316 µM; in test [4], more than 10 µM. In addition, in test [4], the inhibition at 10 µM was 37.9%.

Consider `COc1cncc(-c2ccc3[nH]nc(-c4cc5c(-c6ccsc6)ccnc5[nH]4)c3c2)c1` [Compound 676, 5-(5-Methoxypyridin-3-yl)-3-(4-(thiophen-3-yl)-1H-pyrrolo[2,3-b]pyridin-2-yl)-1H-indazole], for which the inhibition at 10 µM was determined as 21% in test [1], 0% in test [2] and 38.4% in test [4]. The EC50 is more than 10 µM in test [1], more than 10 µM in test [2], 7.78 µM in test [3] and more than 10 µM in test [4].

`c1cnc(-c2ccc3[nH]nc(-c4cc5c(-c6ccoc6)ccnc5[nH]4)c3c2)cn1` [Compound 696, 3-(4-(Furan-3-yl)-1H-pyrrolo[2,3-b]pyridin-2-yl)-5-(pyrazin-2-yl)-1H-indazole]: the EC50 in test [1] is 4.15 µM; in test [2], 3.99 µM; in test [3] it was 2.48 µM; in test [4], more than 10 µM. Also, in test [4], the inhibition at 10 µM was found to be 43.3%.

For the compound `c1csc(-c2ccnc3[nH]c(-c4n[nH]c5ccc(-c6cnccn6)cc45)cc23)c1` [Compound 712, 5-(Pyrazin-2-yl)-3-(4-(thiophen-2-yl)-1H-pyrrolo[2,3-b]pyridin-2-yl)-1H-indazole], the inhibition at 10 µM worked out at 5.6% in test [1], 13.9% in test [2] and 36.3% in test [4]. In addition, the EC50 in test [1] is more than 10 µM; in test [2] it was more than 10 µM; in test [3] it was 1.4 µM; in test [4], more than 10 µM.

The record behind these values is US10350199B2, “3-(1h-pyrrolo[2,3-b]pyridin-2-yl)-1h-indazoles and therapeutic uses thereof” (Samumed, LLC, priority 2015, dated 2019).
